Experiments:
human RORγ = target: T1, human RORγ (Homo sapiens, UniProt P51449); experiment: In-vitro reporter gene assay for inhibitory activity against RORγ transcription, Test Method B (pFA/hRORγ LBD / pG5-Luc in CHO cells); assay type: cell-based; details: for EC50: luciferase reporter, CHO cells, 2 days
T1 construct: from Ser253 to Lys518 for human RORγ; expressed in transfected cells; host or cells: CHO cells (transient co-transfection with pG5-Luc)
T1 sequence (P51449 253-518): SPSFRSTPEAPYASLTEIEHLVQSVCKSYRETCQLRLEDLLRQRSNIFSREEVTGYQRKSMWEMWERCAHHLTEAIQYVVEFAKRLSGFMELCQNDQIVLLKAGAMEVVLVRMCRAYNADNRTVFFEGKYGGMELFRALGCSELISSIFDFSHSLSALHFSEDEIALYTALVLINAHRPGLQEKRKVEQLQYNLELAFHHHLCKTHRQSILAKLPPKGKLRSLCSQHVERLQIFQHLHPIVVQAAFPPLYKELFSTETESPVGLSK
Procedure: (§1) In-Vitro Assay for Inhibitory Activity Against RORγ Transcription
(§2) Inhibitory activity against RORγ transcription was assessed for test compounds by either of the following Test Method A or B of reporter gene assay.
(§3) cDNAs encoding human and mouse RORγ ligand binding domains (LBD) were obtained based on the sequences of human RORγ (Genbank registered number NM_005060.3) and mouse RORγ (Genbank registered number NM_011281.2) (LBD sequences: from Ser253 to Lys518 for human RORγ; from Ile251 to Lys516 for mouse RORγ).
(§4) LBD cDNAs of human and mouse RORγ were inserted into pFA-CMV vector (Agilent Technologies, Inc.), which expresses GAL4-DNA binding domain fusion protein. The resulting plasmids are hereinafter referred to as pFA/hRORγ plasmid and pFA/mRORγ plasmid, respectively.
(§5) pFA/hRORγ plasmid or pFA/mRORγ plasmid was transiently co-transfected into Chinese hamster ovary cells (CHO cells) with pG5-Luc (Promega), reporter plasmid expressing firefly luciferase in a GAL4-dependent manner.
(§6) TransIT (Registered trademark) CHO Transfection Kit (Mirus) was used to co-transfect CHO cells with the plasmids. One day prior to the assay, CHO cells were suspended in HAM F-12 Nutrient medium containing 10% (v/v) fetal bovine serum and seeded at 5.5×10^6 cells per 225 cm^2 cell culture flask each. 72 μL of TransIT (Registered trademark) CHO reagent was added into a 2 mL tube containing 1.55 mL of Opti-MEM, and then mixed and incubated at room temperature for 10 minutes. 50.4 μL of a plasmid solution containing 300 ng of pFA/hRORγ plasmid, 12000 ng of pG5-Luc plasmid, and 11700 ng of pcDNA3.1 plasmid were added into the tube and mixed gently. In the case of mouse assay, a plasmid solution containing 300 ng of pFA/mRORγ plasmid, 12000 ng of pG5-Luc plasmid, and 11700 ng of pcDNA3.1 plasmid was added, instead. The mixture was incubated at room temperature for 10 minutes. 12 μL each of CHO Mojo Reagent were then added into each tube and mixed gently. The mixture was incubated at room temperature for 10 minutes. The resulting transfection reagent was applied to the cell culture. After incubation at 37° C., 5% CO2 for 4 hours, the plasmid-transfected CHO cells were harvested by trypsin treatment. The collected cells were resuspended in culture medium and plated into a 384-well-white plate at 8,000 cells/35 μL/well. The plate was let stand at room temperature for 1 hour and then further incubated at 37° C., 5% CO2 for 3 hours. A test compound was dissolved in dimethyl sulfoxide (DMSO) to obtain a concentration of 10 mM. Each solution was serially diluted with DMSO and further diluted with culture medium just before use. The test compound solutions were added to the cells in the plate at 6 different concentrations. The final concentration of DMSO was 0.2% (v/v). After the addition of test compound, the cells were incubated at 37° C., 5% CO2 for 2 days.
(§7) RORγ transcriptional activity was detected as the intracellular luciferase activity using SteadyLite HTS Reporter Gene Assay System (Perkin Elmer). SteadyLite Reagent was diluted 2.5-fold with Extension buffer (10 mM Tricine, 0.2% (w/v) bovine serum albumin, 0.02% (v/v) Tween-20) to obtain a luciferase substrate solution. Two days after the addition of test compound, 40 μL each of the luciferase substrate solution was added into the 384-well-plate. After the incubation at room temperature for 10 minutes, luminescence of each well was measured with a microplate reader. The luciferase activity derived from the luminescence count in a vehicle-control well treated with 0.2% DMSO alone was defined as 100%, and the luciferase activity after treatment of the test compound was calculated as a percentage, %-of-control, based on the value of the vehicle-control. An EC50 value of the test compound was calculated by curve fitting. The luminescence counts at the concentration of test compound where cytotoxicity was observed were excluded from data analysis. […]

mouse RORγ = target: T2, mouse RORγ (Mus musculus, UniProt P51450); experiment: In-vitro reporter gene assay for inhibitory activity against RORγ transcription, Test Method B (pFA/mRORγ LBD / pG5-Luc in CHO cells); assay type: cell-based; details: for EC50: luciferase reporter, CHO cells, 2 days
T2 construct: from Ile251 to Lys516 for mouse RORγ; expressed in transfected cells; host or cells: CHO cells (transient co-transfection with pG5-Luc)
T2 sequence (P51450 251-516): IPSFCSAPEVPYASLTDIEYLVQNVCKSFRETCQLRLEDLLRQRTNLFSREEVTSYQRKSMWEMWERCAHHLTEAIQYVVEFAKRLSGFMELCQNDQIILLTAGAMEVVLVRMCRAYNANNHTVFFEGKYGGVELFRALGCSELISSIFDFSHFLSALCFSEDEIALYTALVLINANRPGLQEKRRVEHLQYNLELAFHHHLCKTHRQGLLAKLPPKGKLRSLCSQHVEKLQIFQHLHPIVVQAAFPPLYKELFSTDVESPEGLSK
Procedure: as §1, §2, §3, §4, §5, §6, §7

[1] = vehicle-control 0.2% DMSO = 100%

Compound | EC50 (human RORγ) | EC50 (mouse RORγ) | hRORγ luciferase activity after treatment with test compound, %-of-control (human RORγ; [1]) | mRORγ luciferase activity after treatment with test compound, %-of-control (mouse RORγ; [1])
CC1(C)CC1COc1ccc(C23CCCCC2=CN(CCC(=O)O)C(=O)N3)cc1Cl (racemic) [Example 88] | 0.751 µM | 0.169 µM |  | 
O=C(O)CCN1C=C2CCCCC2(c2ccc(OC3CCCCC3)c(Cl)c2)NC1=O (racemic) [Example 95] | 2.34 µM | 0.455 µM |  | 
CC(C)Oc1ccc(C23CCCCC2=CN(CCC(=O)O)C(=O)N3)cc1Cl (racemic) [Example 96] | > 10 µM | > 10 µM | (84%) | (84%)
CC1(C)CC(COc2ccc(C34CCCCC3=CN(CCC(=O)O)C(=O)N4)cc2Cl)C1 (racemic) [Example 100] | 0.206 µM | 0.055 µM |  | 
CCCCOc1ccc(C23CCCCC2=CN(CCC(=O)O)C(=O)N3)cc1Cl (racemic) [Example 101] | 7.28 µM | 1.39 µM |  | 
CC1C2=CN(C34CC(C(=O)O)(C3)C4)C(=O)NC2(c2ccc(CCC(C)(C)C)c(Cl)c2)CC1(C)C (single isomer, unassigned) [Example 34] | 0.087 µM | 0.169 µM |  | 
CC1C2=CN(C34CC(C(=O)O)(C3)C4)C(=O)NC2(c2ccc(CCC(C)(C)C)c(Cl)c2)CC1(C)C (single isomer, unassigned) [Example 35] | 4.19 µM | 4.97 µM |  | 
CC(C)(C)CCc1ccc([C@]23CCC(F)(F)CC2=CN(C24CC(C(=O)O)(C2)C4)C(=O)N3)cc1Cl (single isomer, unassigned) [Example 86] | 4.94 µM | 4.37 µM |  | 
CC(C)(C)CCc1ccc([C@@]23CCC(F)(F)CC2=CN(C24CC(C(=O)O)(C2)C4)C(=O)N3)cc1Cl (single isomer, unassigned) [Example 87] | 0.038 µM | 0.029 µM |  | 
CC1CC[C@]2(c3ccc(CCC(C)(C)C)c(Cl)c3)NC(=O)N(C34CC(C(=O)O)(C3)C4)C=C2C1 (single isomer, unassigned) [Example 89] | 3.71 µM | 4.19 µM |  | 
CC1CC[C@@]2(c3ccc(CCC(C)(C)C)c(Cl)c3)NC(=O)N(C34CC(C(=O)O)(C3)C4)C=C2C1 (single isomer, unassigned) [Example 90] | 0.022 µM | 0.023 µM |  | 
CC1CC[C@]2(c3ccc(CCC(C)(C)C)c(Cl)c3)NC(=O)N(C34CC(C(=O)O)(C3)C4)C=C2C1 (single isomer, unassigned) [Example 91] | 0.111 µM | 0.185 µM |  | 
CC1CC[C@@]2(c3ccc(CCC(C)(C)C)c(Cl)c3)NC(=O)N(C34CC(C(=O)O)(C3)C4)C=C2C1 (single isomer, unassigned) [Example 92] | 0.042 µM | 0.019 µM |  | 
CCC1CC[C@]2(c3ccc(CCC(C)(C)C)c(Cl)c3)NC(=O)N(C34CC(C(=O)O)(C3)C4)C=C2C1 (single isomer, unassigned) [Example 93] | 3.97 µM | 4.23 µM |  | 
CCC1CC[C@@]2(c3ccc(CCC(C)(C)C)c(Cl)c3)NC(=O)N(C34CC(C(=O)O)(C3)C4)C=C2C1 (single isomer, unassigned) [Example 94] | 0.046 µM | 0.082 µM |  | 
CC(C)(C)CCc1ccc(C23CCC(C#N)CC2=CN(C24CC(C(=O)O)(C2)C4)C(=O)N3)cc1Cl (single isomer, unassigned) [Example 97] | 0.11 µM | 0.156 µM |  | 
CC(C)C1CC[C@]2(c3ccc(CCC(C)(C)C)c(Cl)c3)NC(=O)N(C34CC(C(=O)O)(C3)C4)C=C2C1 (single isomer, unassigned) [Example 98] | 4.36 µM | 5.11 µM |  | 
CC(C)C1CC[C@@]2(c3ccc(CCC(C)(C)C)c(Cl)c3)NC(=O)N(C34CC(C(=O)O)(C3)C4)C=C2C1 (single isomer, unassigned) [Example 99] | 0.053 µM | 0.146 µM |  | 
CC(C)(C)CCc1ccc([C@]23CCC(C)(C)CC2=CN(C24CC(C(=O)O)(C2)C4)C(=O)N3)cc1Cl (single isomer, unassigned) [Example 102] | 3.95 µM | 4.57 µM |  | 
CC(C)(C)CCc1ccc([C@@]23CCC(C)(C)CC2=CN(C24CC(C(=O)O)(C2)C4)C(=O)N3)cc1Cl (single isomer, unassigned) [Example 103] | 0.026 µM | 0.046 µM |  | 
CC(C)C1CC[C@]2(c3ccc(CCC(C)(C)C)c(Cl)c3)NC(=O)N([C@H]3CC[C@@H](C(=O)O)C3)C=C2C1 (single isomer, unassigned) [Example 104] | 5.26 µM | 5.28 µM |  | 
CC(C)C1CC[C@@]2(c3ccc(CCC(C)(C)C)c(Cl)c3)NC(=O)N([C@H]3CC[C@@H](C(=O)O)C3)C=C2C1 (single isomer, unassigned) [Example 105] | 0.102 µM | 0.113 µM |  | 
C[C@@H]1CCC2(c3ccc(CCC(C)(C)C)c(Cl)c3)NC(=O)N(C34CC(C(=O)O)(C3)C4)C=C2[C@@H]1C (single isomer, unassigned) [Example 106] | 4.4 µM | 4.78 µM |  | 
C[C@H]1CCC2(c3ccc(CCC(C)(C)C)c(Cl)c3)NC(=O)N(C34CC(C(=O)O)(C3)C4)C=C2[C@@H]1C (single isomer, unassigned) [Example 107] | 0.027 µM | 0.032 µM |  | 
CC1C2=CN(C34CC(C(=O)O)(C3)C4)C(=O)N[C@@]2(c2ccc(CCC(C)(C)C)c(Cl)c2)COC1(C)C (single isomer, unassigned) [Example 108] | 4.69 µM | 5.05 µM |  | 
CC1C2=CN(C34CC(C(=O)O)(C3)C4)C(=O)N[C@]2(c2ccc(CCC(C)(C)C)c(Cl)c2)COC1(C)C (single isomer, unassigned) [Example 109] | 0.033 µM | 0.036 µM |  | 
CC1C2=CN(C34CC(C(=O)O)(C3)C4)C(=O)N[C@]2(c2ccc(CCC(C)(C)C)c(Cl)c2)COC1(C)C (single isomer, unassigned) [Example 110] | 0.01 µM | 0.012 µM |  | 
CC1CC[C@]2(c3ccc(CCC(C)(C)C)c(Cl)c3)NC(=O)N(C34CCC(C(=O)O)(C3)C4)C=C2C1 (single isomer, unassigned) [Example 111] | 3.45 µM | 3.66 µM |  | 
CC1CC[C@@]2(c3ccc(CCC(C)(C)C)c(Cl)c3)NC(=O)N(C34CCC(C(=O)O)(C3)C4)C=C2C1 (single isomer, unassigned) [Example 112] | 0.035 µM | 0.038 µM |  | 
C[C@H]1CCC2(c3ccc(C4C(C(C)(C)C)C4(F)F)c(Cl)c3)NC(=O)N(C34CC(C(=O)O)(C3)C4)C=C2[C@@H]1C (single isomer, unassigned) [Example 113] | 0.033 µM | 0.037 µM |  | 
